Results published in US10377784B2, “Design, synthesis, and biological activity of platinum-benz[c]acridine hybrid agents and methods associated therewith” (Wake Forest University, priority 2014, dated 2019).

Assays:
[1] = test system: NCI-H460; assay: Cytotoxicity assay (MTS, Celltiter 96) in NCI-H460; assay type: cell-based, human; settings: for IC50: 72 h drug incubation, MTS assay, mean of duplicate experiments ± SD
Protocol: (§1) After successful synthesis and purification of P1-A1, P1-B1, and P1-B2 was completed, each drug was tested for its cell-kill ability in five non-small-cell lung cancer cell lines (Table 2).
(§2) ^aConcentration of compound that reduces cell viability by 50%, determined at 72 h of drug incubation using the MTS (3-(4,5-dimethylthiazol-2-yl)-5-(3-carboxymethoxyphenyl)-2-(4-sulfophenyl)-2H-tetrazolium) assay. Values are means of duplicate experiments±the standard deviation. ^bCompound not tested in this cell line.
(§3) The human non-small cell lung cancer cell lines, NCI-H460 (large cell), NCI-H520 (squamous cell), NCI-H522, NCI-H1435 and A549 (adenocarcinomas) were obtained from the American Type Culture Collection (Rockville, Md., USA). NCI-H460, NCI-H520 and NCI-H522 cells were cultured in RPMI-1640 media (HyClone) supplemented with 10% fetal bovine serum (FBS), […] (P&S), […], and 1.5 g/L NaHCO3. A549 cells were cultured in HAM's F12K media (Gibco) with the same additives as above. NCI-H1435 cells were cultured in serum-free 1:1 DMEM/F12 media (Gibco) containing 2.436 g/L NaHCO3, 0.02 mg/mL insulin, 0.01 mg/mL transferrin, 25 nM sodium selenite, 50 nM hydrocortisone, 1 ng/mL epidermal growth factor, 0.01 mM ethanolamine, 0.01 mM phosphorylethanolamine, 100 pM triiodothyronine, 0.5% (w/v) bovine serum albumin (BSA), 10 mM HEPES, 0.5 mM sodium pyruvate, and an extra 2 mM L-glutamine (final concentration 4.5 mM). Cells were incubated at a constant temperature at 37° C. in a humidified atmosphere containing 5% CO2 and were subcultured every 2 to 3 days in order to maintain cells in logarithmic growth, except for NCI-H1435 which was subcultured every 7 days.
(§4) The cytotoxicity studies were carried out according to a standard protocol using the Celltiter 96 aqueous nonradioactive cell proliferation assay kit (Promega, Madison, Wis.). Stock solutions (10 mM) of all drugs were made in DMF, except for P1-B2 which was made in DMSO, and serially diluted with media prior to incubation with cancer cells. IC50 values were calculated from nonlinear curve fits using a sigmoidal dose-response equation in GraphPad Prism (GraphPad Software, La Jolla, Calif.).

[2] = test system: NCI-H520; assay: Cytotoxicity assay (MTS, Celltiter 96) in NCI-H520; assay type: cell-based, human; settings: mean of duplicate experiments ± SD
Protocol: as §1, §2, §3, §4

[3] = test system: NCI-H522; assay: Cytotoxicity assay (MTS, Celltiter 96) in NCI-H522; assay type: cell-based, human; settings: 72 h drug incubation, mean of duplicate experiments ± SD
Protocol: as §1, §2, §3
as §4, with “Stock solutions (10 mM) of all drugs were made in DMF, except for P1-B2 which was made in DMSO, and serially diluted with media prior to incubation with cancer cells.” left out

[4] = test system: NCI-H1435; assay: Cytotoxicity assay (MTS, Celltiter 96) in NCI-H1435; assay type: cell-based, human; settings: 72 h drug incubation, mean of duplicate experiments ± SD
Protocol: as §1, §2, §3
as §4, with “Stock solutions (10 mM) of all drugs were made in DMF, except for P1-B2 which was made in DMSO, and serially diluted with media prior to incubation with cancer cells.” left out

[5] = test system: A549; assay: Cytotoxicity assay (MTS, Celltiter 96) in A549; assay type: cell-based, human; settings: 72 h drug incubation, mean of duplicate experiments ± SD
Protocol: as §1, §2, §3
as §4, with “Stock solutions (10 mM) of all drugs were made in DMF, except for P1-B2 which was made in DMSO, and serially diluted with media prior to incubation with cancer cells.” left out

[6] = Spectrophotometric determination of pKa values for platinum complexes; assay type: physicochemical; settings: spectrophotometric titration at 25° C.; numeric values only in Chart 3 drawing
Protocol: The pKa values of P1-A1, P1-B1 and P1-B2 were determined spectrophotometrically using a Hewlett Packard 8354 spectrophotometer equipped with a Peltier temperature control and a cell stirring module. Titrations were carried out at 25° C. in the pH range 2-11 with a micro combination electrode placed inside the cuvette. Solutions of P1-A1 (˜100 μM), P1-B1 (˜100 μM), and P1-B2 (˜50 μM) in 0.1 M HCl/100 mM NaCl were titrated with aliquots of 0.4 M, 0.04M, and 0.004M KOH, and UV-Vis spectra were recorded after a 2 min equilibration time. The protonation state of the chromophores was deduced from spectral changes around isosbestic points. The pKa values were determined graphically from plots of pH vs. log[k(Aacr/AacrH+)], where k=εacrH+/εacr using suitable absorbance maxima. The pKa values of P1-A1 and P1-B1 were determined at the y-intercept of the plot. […] Reported pKa values are means of three measurements+/−the standard deviation.

[7] = test system: G-quadruplex DNA; assay: G-quadruplex DNA recognition and platination; assay type: binding; settings: for Selective recognition of G-quadruplex DNA: displayed by induced circular dichroism (ICD)
[8] = test system: non-small-cell lung cancer cell lines; assay: Cytotoxicity across NSCLC lines (summary statements); assay type: cell-based, human
Protocol: as §1
When observing the structure-activity relationship of the platinum hybrid agents, it is important to note the increased cytotoxicity upon addition of the platinum module.
The human non-small cell lung cancer cell lines, NCI-H460 (large cell), NCI-H520 (squamous cell), NCI-H522, NCI-H1435 and A549 (adenocarcinomas) were obtained from the American Type Culture Collection (Rockville, Md., USA). NCI-H460, NCI-H520 and NCI-H522 cells were cultured in RPMI-1640 media (HyClone) supplemented with 10% fetal bovine serum (FBS), […] (P&S), […], and 1.5 g/L NaHCO3. A549 cells were cultured in HAM's F12K media (Gibco) with the same additives as above. […]
as §4, with “Stock solutions (10 mM) of all drugs were made in DMF, except for P1-B2 which was made in DMSO, and serially diluted with media prior to incubation with cancer cells.” left out

[9] = test system: DNA from NCI-H460 cells; assay: Platinum content associated with DNA in NCI-H460 cells (ICP-MS); assay type: cell-based, human; settings: 1 μM drug, both time points, p>0.05
Protocol: (§5) To determine the platinum content of nucleic acid material, DNA and RNA was extracted and purified from cells using the Qiagen AllPrep DNA/RNA Mini Kit (Qiagen, Alameda, Calif., USA). 1.5×10^6 exponentially-growing NCI-H460 cells were seeded into 60-mm cell culture dishes with 2 mL of media and were allowed to attach for 24 hours. Cells were incubated in the presence of 1 μM P1-A1 or P1-B1 at 37° C. for various time intervals. Incubations were performed in triplicate for each incubation condition/time point. To quench the incubations, cells were washed three times in cold PBS. The cells were harvested via trypsinization and removed from the dishes with successive washes of cold PBS. Cell suspensions were centrifuged at 1500 rpm for 5min at 4° C. The cell pellet was re-suspended in 5 mL of cold PBS and centrifuged at 1500 rpm for 5 min at 4° C. The supernatant was removed and the DNA/RNA was extracted from the pellet according to the protocol provided by the manufacturer. The concentration and purity of each sample was determined spectrophotometrically (triplicate readings at 260 and 280 nm).
(§6) Platinum content was determined by ICP-MS.

[10] = test system: RNA from NCI-H460 cells; assay: Platinum content associated with RNA in NCI-H460 cells (ICP-MS); assay type: cell-based, human; settings: 1 μM drug, 3 h, p<0.05
Protocol: as §5, §6

[11] = Homo sapiens, NCI-H520, 72 h drug incubation

| Compound | IC50 ([1]; Homo sapiens, NCI-H460) | IC50 [2, 11] | IC50 [1] | IC50 ([2]; 72 h drug incubation) | IC50 [3] | IC50 [4] | IC50 [5] | pKa (rank among the three Pt-chromophore hybrid agents) [6] | Selective recognition of G-quadruplex DNA [7] | IC50 value (in words) ([1]; NCI-H460 cells, 72 h incubation, chromophore module alone) | folding and irreversible platination of G-quadruplex DNA [7] | cytotoxicity (in words) ([8]; 72 hour incubations, extremely aggressive NSCLC models) | IC50 ([8]; NSCLC lines tested except NCI-H1435) | platinum level observed in the DNA of treated cells vs control cells [9] | platinum level observed in the RNA of treated cells [10] |
| --- | --- | --- | --- | --- | --- | --- | --- | --- | --- | --- | --- | --- | --- | --- | --- |
| CNCCNc1c2cc([N+](=O)[O-])ccc2nc2c1ccc1ccccc12 [Compound B2, N1-methyl-N2-(9-nitrobenzo[c]acridin-7-yl)ethane-1,2-diamine] | 2.08 ± 0.04 µM | 3.35 ± 0.08 µM |  |  |  |  |  |  |  |  |  |  |  |  |  |
| [Pt(Cl)(NH3)2(N-(2-(acridin-9-ylamino)ethyl)-N-methylpropionimidamide)] Cl [Compound P1-A1, reference compound] |  |  | 0.0052 ± 6e-05 µM | 0.043 ± 0.004 µM | 0.01 ± 0.0007 µM | 0.84 ± 0.07 µM | 0.0065 ± 0.0002 µM | highest | not previously displayed |  |  |  |  |  |  |
| CNCCNc1c2ccccc2nc2c1ccc1ccccc12 [Compound B1, N1-(benzo[c]acridin-7-yl)-N2-methylethane-1,2-diamine] | 0.9 ± 0.1 µM | 1.8 ± 0.1 µM |  |  |  |  |  |  |  | sub-micromolar range |  |  |  |  |  |
| [Pt(Cl)(NH3)2(N-methyl-N-(2-((9-nitrobenzo[c]acridin-7-yl)amino)ethyl)propionimidamide)] Cl •1/3 DMF [Compound P1-B2] |  |  | 2.4 ± 0.5 µM | 2.2 ± 0.1 µM | 3.62 ± 0.08 µM | 11 ± 0.2 µM | 12.4 ± 0.9 µM | lowest | Selective recognition of G-quadruplex DNA |  | ability to fold and irreversibly platinate G-quadruplex DNA |  |  |  |  |
| [Pt(Cl)(NH3)2(N-(2-(benzo[c]acridin-7-ylamino)ethyl)-N-methylpropionimidamide)] Cl [Compound P1-B1] |  |  | 0.24 ± 0.01 µM | 0.516 ± 0.009 µM | 0.12 ± 0.02 µM | 1.479 ± 0.009 µM | 0.32 ± 0.06 µM |  | Selective recognition of G-quadruplex DNA |  | ability to fold and irreversibly platinate G-quadruplex DNA | nanomolar cytotoxicity | 0.1 to 0.5 µM | not statistically significant | statistically significant |
